33 compounds from patent US5227384A, “5-substituted [4,5-c] imidazopyridines and pharmaceutical use thereof” (G. D. Searle & Co., priority 1991, dated 1993) can be followed below.

The test system of assay [1] is rabbit platelets. The assay can be described thus: PAF-induced platelet aggregation. It counts as cell-based. Conditions: Oryctolagus cuniculus, washed rabbit platelets, 60 sec after PAF, IC50 by inspection of dose-response curves. The protocol: (§1) PAF-induced platelet aggregation and secretion: Washed, [^3 H]serotonin-labeled rabbit platelets were prepared as previously described in COX, C. P., J. LINDEN and S. I. SAID: VIP elevates platelet cyclic AMP (cAMP) levels and inhibits in vitro platelet activation induced by platelet-activating factor (PAF). Peptides 5:25-28, 1984, and maintained in an atmosphere of 5% CO2 at 37° C. until used in the bioassay. […] Aggregation was continuously monitored on a strip-chart recorder and recorded as the height of the tracing at 60 sec after the addition of PAF. Secretion of [^3 H]serotonin was measured in a sample of the platelet suspension removed at 60 sec after the addition of PAF. The percent inhibition of aggregation and secretion was calculated by comparing antagonist-treated platelets with the appropriate vehicle-treated control platelets. Each combination of antagonist and PAF was repeated 12-15 times, using several different platelet preparations. IC50 values were determined by inspection of the dose-response curves.

Assay [2] relates to rabbit platelets. The assay can be described thus: PAF-induced platelet secretion ([^3 H]serotonin). It counts as cell-based. As to conditions: Oryctolagus cuniculus, washed [^3 H]serotonin-labeled rabbit platelets, 60 sec after PAF, IC50 by inspection of dose-response curves. How it is done:
as §1

The target in assay [3] is PAF receptor (Human Platelet Membrane Receptors) (Homo sapiens, UniProt P25105).
Sequence of PAF receptor (Human Platelet Membrane Receptors) (P25105 whole entry): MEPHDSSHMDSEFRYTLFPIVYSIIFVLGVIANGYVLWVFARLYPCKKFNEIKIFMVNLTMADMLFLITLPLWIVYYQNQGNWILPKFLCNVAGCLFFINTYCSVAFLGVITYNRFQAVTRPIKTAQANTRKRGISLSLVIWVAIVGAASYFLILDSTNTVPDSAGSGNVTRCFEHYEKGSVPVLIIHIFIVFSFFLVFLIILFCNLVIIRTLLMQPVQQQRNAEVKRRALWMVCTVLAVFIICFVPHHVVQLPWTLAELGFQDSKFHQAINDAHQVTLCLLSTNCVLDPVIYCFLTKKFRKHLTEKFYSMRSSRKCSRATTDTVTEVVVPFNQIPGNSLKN
Method: Inhibition of ^3 H-PAF Binding to Human Platelet Membrane Receptors
Receptor Preparation: Ten units of in-dated human packed platelets, each containing 45-65 ml platelet rich-plasma, were purchased from a commercial blood bank. Disposable plasticware was used throughout for receptor preparation. The units were pooled and a 1 ml aliquot was removed for determination of platelet concentration, using a Coulter Counter. The remaining platelet rich plasma was dispensed into 50 ml conical tubes and centrifuged at room temperature for 15 minutes at 3000 RPM (2300×g).Plasma was decanted and the platelets were resuspended in 35 ml of buffer 10 mM Trizma 7.0, 2 mM EDTA (dipotassium salt), and 150 mM KCl) and transferred to fresh tubes, which were centrifuged again as above. The platelets were washed 3 times, avoiding contaminating erythrocytes at the bottom of the pellets. Pellets were consolidated at each step, and by the last wash with EDTA/KCl buffer, most of the erythrocytes were in 1 tube. The pellets were resuspended in buffer containing 10 mM Trizma 7.0 with 10 mM CaCl2. Following centrifugation, the buffer was decanted and the pellets were resuspended in the CaCl2 buffer, avoiding erythrocyte contamination by recovering less than 100% of the platelet pellets. The resuspended platelets were dispensed in 8-10 ml aliquots into Corex tubes and disrupted by three cycles of freezing (dry ice/ethanol) and thawing (24° C.). The tubes were centrifuged at 40,000×g for 20 minutes at 4° C. Supernatants were decanted and each pellet was resuspended in 5-7 ml 10 mM Trizma 7.0. All resuspended pellets were pooled and aliquots of about 1200 ml were dispensed into 1.5 ml microfuge tubes and frozen at -70° C. Protein content was determined by a fluorescamine protein assay.
Assay Methods: Receptor Characterization--Each receptor preparation was evaluated to determine the number of receptor populations, the number of PAF receptor equivalents/mg protein and the dissociation constant (KD) for PAF binding. This required 2-3 experiments in which the protein concentration was held constant and the ^3 H-PAF ligand concentration was varied from approximately 0.10-2.5 nM and the data was analyzed by Scatchard methodology. Total incubation volume was 250 ml for these procedures and incubations were conducted at 24° C. for 30 minutes. For further experimentation, total incubation volumes are 500 ml. Protein and ligand concentrations were adjusted to give 0.075 nM receptor equivalents in the presence of 0.75 nM ^3 H-PAF. Each receptor preparation was then used to determine the dose--response displacement relationship of unlabeled PAF and the PAF antagonist, triazolam.
Assay Methods: Routine Assay of Compounds--The compounds were weighed precisely and solubilized in quantities of DMSO such that a 5 ml aliquot in the incubate would deliver the desired compound concentration. Compounds tested for the first time in this assay were evaluated at a concentration of 50 mM in the incubation medium. […] Triazolam was always included in each screening assay as a compound inhibition control. […] Nonspecific binding control solution was made by drying to completion about 26.2 ml unlabeled PAF under a stream of argon. PAF was resolubilized in 1000 ml DMSO. When delivered in a 5 ml aliquot, the final concentration of 1 mM PAF in the incubate exceeded by 1000-fold the concentration of ^3 H-PAF.
All buffers containing proteins were made at room temperature on the day of assay. Assay buffer was prepared by adding 125 mg human albumin to 25 ml of stock buffer (10 mM Trizma 7.4 with 20 mM CaCl2). Rinse buffer was made by adding 20 grams bovine serum albumin to i000 ml stock buffer. About 80 ml of rinse buffer was decanted into a small pyrex dish and used to soak 65 Whatman GF/C 2.5 cm glass filters. The remaining rinse buffer was poured into a repipet and placed into an ice bath along with the filters.

Take `CN(C(=O)c1ccc(CCn2ccc3ncnc-3c2)cc1)C1CCCCC1` [5-[2-[4-(N-methyl-N-cyclohexylcarboxamido)phenyl]ethyl]imidazo[4,5-c]pyridine]: the results for the IC50 with rabbit platelets [1] (1 min) and in the assay with rabbit platelets [2] (1 min) were 10 to 100 µM and 1 to 10 µM, respectively.
For the compound `CC(C)N(C(=O)c1cccc(Cn2ccc3ncnc-3c2)c1)C1CCCCC1` [5-[3-(N-isopropyl-N-cyclohexylcarboxamido)benzyl]imidazo[4,5-c]pyridine], the IC50 is 50 to 100 µM in the assay on rabbit platelets [1] (1 min) and 1 to 10 µM in the assay with rabbit platelets [2] (1 min).
Take `CN(C(=O)c1cccc(Cn2ccc3ncnc-3c2)c1)C1CCCCC1` [5-[3-(N-methyl-N-cyclohexylcarboxamido)benzyl]imidazo[4,5-c]pyridine]: the 50% inhibitory concentration (IC50) in the assay on rabbit platelets [1] (1 min) and in the assay with rabbit platelets [2] (1 min) was 10 to 100 µM in each case.
In the case of `CN(C(=O)c1ccc(CCCn2ccc3ncnc-3c2)cc1)C1CCCCC1` [5-[3-[4-(N-methyl-N-cyclohexylcarboxamido)phenyl]propyl]imidazo[4,5-c]pyridine], the 50% inhibitory concentration (IC50) in the assay on rabbit platelets [1] (1 min) was 10 to 100 µM; in the assay with rabbit platelets [2] (1 min) it was 1 to 10 µM; in assay [3], 61.1 µM.
On to `COc1cc(C(=O)N(C2CCCC2)C2CCCC2)ccc1Cn1ccc2ncnc-2c1` [5-[4-(N,N-dicyclopentylcarboxamido)-2-methoxybenzyl]imidazo[4,5-c]pyridine], for which the IC50 in the assay on rabbit platelets [1] (1 min) lay in the range of 0.01 to 0.1 µM; in the assay with rabbit platelets [2] (1 min), 0.001 to 0.01 µM.
For the compound `Cc1nc2ccn(Cc3ccc(C(=O)N(C4CCCC4)C4CCCC4)cc3)cc-2n1` [5-[4-(N,N-dicyclopentylcarboxamido)benzyl]-2-methylimidazo[4,5-c]pyridine], the IC50 with rabbit platelets [1] (1 min) fell in the range of 1 to 10 µM; in the assay with rabbit platelets [2] (1 min), 0.1 to 1 µM.
Turning to `Cc1c2ncnc-2ccn1Cc1ccc(C(=O)N(C2CCCC2)C2CCCC2)cc1` [5-[4-(N,N-dicyclopentylcarboxamido)benzyl]-4-methylimidazo[4,5-c]pyridine], the IC50 is 0.01 to 0.1 µM in the assay on rabbit platelets [1] (1 min), 0.01 to 0.1 µM in the assay on rabbit platelets [2] (1 min) and 0.188 µM in assay [3].
For `O=C(c1ccc(Cn2ccc3ncnc-3c2)cc1)N(C1CCCC1)C1CCCC1` [5-[4-(N,N-dicyclopentylcarboxamido)benzyl]imidazo[4,5-c]pyridine], the IC50 was 0.05 to 0.1 µM in the assay with rabbit platelets [1] (1 min), 0.001 to 0.01 µM in the assay on rabbit platelets [2] (1 min) and 0.31 µM in assay [3].
As for `CC(C)N(C(=O)c1ccc(Cn2ccc3ncnc-3c2)cc1)C(C)C` [5-[4-(N,N-diisopropylcarboxamido)benzyl]imidazo[4,5-c]pyridine], the IC50 was 1 to 10 µM in the assay with rabbit platelets [1] (1 min) and 7.65 µM in assay [3].
Take `CN(C(=O)c1ccc(Cn2ccc3ncnc-3c2)c(F)c1)C1CCCCC1` [5-[4-(N,methyl-N-cyclohexylcarboxamido)-2-fluorobenzyl]imidazo[4,5-c]pyridine]: the results for the IC50 in the assay with rabbit platelets [1] (1 min) and in the assay on rabbit platelets [2] (1 min) were 1 to 10 µM and 0.1 to 1 µM, respectively.
For the compound `CC(C)(C)CC(C)(C)NC(=O)c1ccc(Cn2ccc3ncnc-3c2)cc1` [5-[4-(N-2(2,4,4-trimethyl)pentylcarboxamide)benzyl]imidazo[4,5-c]pyridine], the IC50 was 10 µM in the assay with rabbit platelets [1], 1 µM in the assay with rabbit platelets [2] and 22.3 µM in assay [3].
As to `CN(C(=O)c1ccc(Cn2ccc3ncnc-3c2)cc1)C1CCC2CCCCC2C1` (centres unmarked) [5-[4-(N-2-decalyl-N-methylcarboxamido)benzyl]imidazo[4,5-c]pyridine], the concentration for half-maximal inhibition (IC50) was 1 µM in the assay with rabbit platelets [2] and 13.2 µM in assay [3].
Take `CC1CCCC(N(C(=O)c2ccc(Cn3ccc4ncnc-4c3)cc2)C2CCCC2)C1` (centres unmarked) [5-[4-(N-3-methylcyclohexyl-N-cyclopentylcarboxamido)benzyl]imidazo[4,5-c]pyridine]: the values for the IC50 (in the assay on rabbit platelets [1] (1 min); with rabbit platelets [2] (1 min); in assay [3]) were 0.01 to 0.1 µM, 0.001 to 0.01 µM and 0.074 µM, respectively.
For the compound `CCC(CC)N(C(=O)c1ccc(Cn2ccc3ncnc-3c2)cc1)C1CCCCC1` [5-[4-(N-3-pentyl-N-cyclohexylcarboxamido)benzyl]imidazo[4,5-c]pyridine], the IC50 in the assay with rabbit platelets [1] (1 min) was 0.1 to 1 µM; in the assay on rabbit platelets [2] (1 min), 0.01 to 0.1 µM.
Regarding `CC1CCC(N(C(=O)c2ccc(Cn3ccc4ncnc-4c3)cc2)C2CCCC2)CC1` (centres unmarked) [5-[4-(N-4-methylcyclohexyl-N-cyclopentylcarboxamido)benzyl]imidazo[4,5-c]pyridine], the results for the IC50 (with rabbit platelets [1] (1 min); with rabbit platelets [2] (1 min); in assay [3]) were 0.1 to 1 µM, 0.01 to 0.1 µM and 0.75 µM, respectively.
In the case of `O=C(c1ccc(Cn2ccc3ncnc-3c2)cc1)N(C1CCCCC1)C1CCC1` [5-[4-(N-cyclobutyl-N-cyclohexylcarboxamido)benzyl]imidazo[4,5-c]pyridine], the IC50 with rabbit platelets [1] (1 min) was 0.01 to 0.1 µM; in the assay on rabbit platelets [2] (1 min), 0.001 to 0.01 µM; in assay [3], 0.0199 µM.
As to `O=C(NC1CCCCC1)c1ccc(Cn2ccc3ncnc-3c2)cc1` [5-[4-(N-cyclohexylcarboxamido)benzyl]imidazo[4,5-c]pyridine], the IC50 in the assay with rabbit platelets [1] was 10 µM; with rabbit platelets [2] (1 min), 0.1 to 1 µM; in assay [3], 19.3 µM.
For the compound `O=C(c1ccc(Cn2ccc3ncnc-3c2)c(F)c1)N(C1CCCCC1)C1CCCC1` [5-[4-(N-cyclopentyl-N-cyclohexylcarboxamido)-2-fluorobenzyl]imidazo[4,5-c]pyridine], the results for the IC50 (in the assay on rabbit platelets [1] (1 min); in the assay on rabbit platelets [2] (1 min); in assay [3]) were 0.01 to 0.1 µM, 0.001 to 0.01 µM and 0.0755 µM, respectively.
For the compound `O=C(c1ccc(Cn2ccc3ncnc-3c2)cc1)N(C1CCCCC1)C1CCCC1` [5-[4-(N-cyclopentyl-N-cyclohexylcarboxamido)benzyl]imidazo[4,5-c]pyridine], the IC50 was 0.01 to 0.1 µM in the assay with rabbit platelets [1] (1 min), 0.001 to 0.01 µM with rabbit platelets [2] (1 min) and 0.32 µM in assay [3].
`O=C(c1ccc(Cn2ccc3ncnc-3c2)cc1)N(C1CCCCC1)C1CC1` [5-[4-(N-cyclopropyl-N-cyclohexylcarboxamido)benzyl]imidazo[4,5-c]pyridine]: the IC50 is 0.1 to 1 µM with rabbit platelets [2] (1 min) and 3.68 µM in assay [3].
In the case of `CCN(C(=O)c1ccc(Cn2ccc3ncnc-3c2)cc1)C1CCCCC1` [5-[4-(N-ethyl-N-cyclohexylcarboxamido)carboxamido)benzyl]imidazo[4,5-c]pyridine], the IC50 was 1 to 10 µM in the assay on rabbit platelets [1], 0.1 to 1 µM in the assay on rabbit platelets [2] and 5.2 µM in assay [3].
Turning to `CC(C)CN(C(=O)c1ccc(Cn2ccc3ncnc-3c2)cc1)C1CCCCC1` [5-[4-(N-isobutyl-N-cyclohexylcarboxamido)benzyl]imidazo[4,5-c]pyridine], the concentration for half-maximal inhibition (IC50) came out at 1 µM in the assay with rabbit platelets [1] and 0.1 µM in the assay on rabbit platelets [2].
As to `CC(C)N(C(=O)c1ccc(Cn2ccc3ncnc-3c2)c(F)c1)C1CCCCC1` [5-[4-(N-isopropyl-N-cyclohexylcarboxamido)-2-fluorobenzyl]imidazo[4,5-c]pyridine], the IC50 in the assay with rabbit platelets [1] (1 min) and with rabbit platelets [2] (1 min) was 0.01 to 0.1 µM each time.
With `COc1cc(C(=O)N(C)C2CCCCC2)ccc1Cn1ccc2ncnc-2c1` [5-[4-(N-methyl-N-cyclohexylcarboxamido)-2-methoxybenzyl]imidazo[4,5-c]pyridine], the IC50 lay within 1 to 10 µM in the assay with rabbit platelets [1] (1 min) and 0.1 to 1 µM in the assay with rabbit platelets [2] (1 min).
As for `CN(C(=O)c1ccc(Cn2ccc3ncnc-3c2)cc1)C1CCCCC1` [5-[4-(N-methyl-N-cyclohexylcarboxamido)benzyl]imidazo[4,5-c]pyridine], the half-maximal inhibitory concentration (IC50) was 1 to 10 µM in the assay on rabbit platelets [1] (1 min), 0.72 µM in the assay on rabbit platelets [2] and 15.2 µM in assay [3].
Consider `CCCCCCCCCCNC(=O)c1ccc(Cn2ccc3ncnc-3c2)cc1` [5-[4-(N-n-decylcarboxamido)benzyl]imidazo[4,5-c]pyridine], for which the IC50 is 1 to 10 µM in the assay on rabbit platelets [1] (1 min), 0.1 to 1 µM with rabbit platelets [2] (1 min) and 9.71 µM in assay [3].
As to `CCCCCCCCCCCCNC(=O)c1ccc(Cn2ccc3ncnc-3c2)cc1` [5-[4-(N-n-dodecylcarboxamido)benzyl]imidazo[4,5-c]pyridine], the concentration for half-maximal inhibition (IC50) with rabbit platelets [1] (1 min) is 0.1 to 1 µM; in assay [3] it was 11.9 µM.
Take `CCCCCCCCNC(=O)c1ccc(Cn2ccc3ncnc-3c2)cc1` [5-[4-(N-n-octylcarboxamido)benzyl]imidazo[4,5-c]pyridine]: the figures for the IC50 (in the assay on rabbit platelets [1] (1 min); in the assay with rabbit platelets [2] (1 min); in assay [3]) were 1 to 10 µM, 0.1 to 1 µM and 11 µM, respectively.
In the case of `CCC(C)N(C(=O)c1ccc(Cn2ccc3ncnc-3c2)cc1)C1CCCCC1` (centres unmarked) [5-[4-(N-sec.butyl-N-cyclohexylcarboxamido)benzyl]imidazo[4,5-c]pyridine], the IC50 in the assay with rabbit platelets [1] (1 min) lay within 0.05 to 0.1 µM; with rabbit platelets [2] (1 min), 0.001 to 0.01 µM.
On to `CC(C)(C)N(C(=O)c1ccc(Cn2ccc3ncnc-3c2)cc1)C1CCCCC1` [5-[4-(N-tert.butyl-N-cyclohexylcarboxamido)benzyl]imidazo[4,5-c]pyridine], for which the 50% inhibitory concentration (IC50) in the assay on rabbit platelets [1] (1 min) lay in the range of 0.01 to 0.1 µM; with rabbit platelets [2] (1 min), 0.001 to 0.01 µM.
As to `COc1cc(C(=O)N(C2CCCCC2)C2CCCC2)ccc1Cn1ccc2ncnc-2c1` [5-[4{-(N-cyclopentyl,N-cyclohexyl)carboxamido}-2-methoxybenzyl]imidazo[4,5-c]-pyridine], the figures for the IC50 in the assay with rabbit platelets [1] and with rabbit platelets [2] (1 min) were 0.01 µM and 0.001 to 0.01 µM, respectively.
Take `Cc1cc(C(=O)N(C2CCCCC2)C2CCCC2)ccc1Cn1ccc2ncnc-2c1` [N-cyclohexyl-N-cyclopentyl-4-(5H)-imidazo[4,5-c]pyridin-5-ylmethyl)-3-methylbenzamide]: the values for the IC50 (in the assay on rabbit platelets [2]; in assay [3]) were 0.002 µM and 0.018 µM, respectively.
In the same order, the values of `COc1cc(Cn2ccc3ncnc-3c2)ccc1C(=O)N(C1CCCC1)C1CC(C)CC(C)C1` (centres unmarked) [N-cyclopentyl-N-(3,5-dimethylcyclohexyl)-4-(5H-imidazo[4,5-c]pyridin-5-ylmethyl)-2-methoxybenzamide] are 0.001 µM and 0.001 µM.

In general, IC50 refers to the point on the concentration scale where inhibition reaches its midpoint.
